{
  "source": "patent US4987131A",
  "about": "“4H-triazolo[4,3-a][1,4]benzodiazepines” (Roussel Uclaf, priority 1985, dated 1991)",
  "key": {"[1]": {"tested_on": "arthritis induced by carrageenin in rats", "assay": "Anti-inflammatory activity: arthritis induced by carrageenin", "assay_type": "in vivo", "settings": "Rattus norvegicus, po; male rats, orally, simultaneously with carrageenin in the tibio-tarsal articulation, paw volume; read-out: DA50, dose giving a decrease in the oedema of 50%", "experimental": "C. Anti-inflammatory activity was determined by the test for arthritis induced by carrageenin in rats and 0.5 ml of a sterile suspension at 1% of carrageenin was administered in the tibio-tarsal articulation of a back paw in male rats weighing from 130 to 150 g. Simultaneously, the product of Example 1 was orally administered in a suspension of carboxymethylcellulose at 0.25% and of Tween at 0.02%. The volume of the paw was measured before the administration, then 2 hours, 4 hours, 6 hours, 8 hours and 24 hours afterwards. The intensity of the inflammation was at its highest 4 to 6 hours after the injection of carrageenin and the difference in volume of the paws of the treated animals and the control animals was evidence of the anti-inflammatory action of the medicament. The DA50 was determined, which was the dose which enabled a decrease in the oedema of 50% to be obtained."}, "[2]": {"tested_on": "stretchings induced by acetic acid in mice", "assay": "Analgesic activity: stretchings induced by acetic acid", "assay_type": "in vivo", "settings": "Mus musculus, po, 0.25 h, orally half an hour before i.p. acetic acid 100 mg/kg, observation 15 minutes, read-out: DA50, dose giving a decrease of 50% in the number of stretchings", "experimental": "B. Study of analgesic activity\nThe test used was stretchings induced by acetic acid described by R. Koster et al [Fed. Proc. 1959, 1B 412] according to which the intraperitoneal injection of acetic acid induces in mice repeated stretchings and torsional movements which can persist for more than 6 hours. Analgesics prevent or decrease this syndrome which can considered as the externalization of a diffuse abdominal pain. The acetic acid was administered at a dose of 100 mg/kg or 1 ml of a 1% aqueous solution per 100 g of body weight and the compound of Example 1 was orally administered half an hour before the injection of acetic acid, the mice having been without food for 7 hours. The stretchings were observed and counted for each mouse for a period of observation of 15 minutes and the results were expressed as active dose 50 which is the dose which enabled a decrease of 50% to be obtained in the number of stretchings in comparison with the control animals. The DA50 found was 4 mg/kg."}, "[3]": {"molecular_target": "T1, cyclo-oxygenase contained in a microsomal preparation of seminal vesicles of a bull (Bos taurus, UniProt O62664)", "T1 construct": "cyclo-oxygenase contained in a microsomal preparation of seminal vesicles of a bull; from tissue; host or cells: bull seminal vesicles, microsomal preparation", "T1 sequence (O62664 25-600)": "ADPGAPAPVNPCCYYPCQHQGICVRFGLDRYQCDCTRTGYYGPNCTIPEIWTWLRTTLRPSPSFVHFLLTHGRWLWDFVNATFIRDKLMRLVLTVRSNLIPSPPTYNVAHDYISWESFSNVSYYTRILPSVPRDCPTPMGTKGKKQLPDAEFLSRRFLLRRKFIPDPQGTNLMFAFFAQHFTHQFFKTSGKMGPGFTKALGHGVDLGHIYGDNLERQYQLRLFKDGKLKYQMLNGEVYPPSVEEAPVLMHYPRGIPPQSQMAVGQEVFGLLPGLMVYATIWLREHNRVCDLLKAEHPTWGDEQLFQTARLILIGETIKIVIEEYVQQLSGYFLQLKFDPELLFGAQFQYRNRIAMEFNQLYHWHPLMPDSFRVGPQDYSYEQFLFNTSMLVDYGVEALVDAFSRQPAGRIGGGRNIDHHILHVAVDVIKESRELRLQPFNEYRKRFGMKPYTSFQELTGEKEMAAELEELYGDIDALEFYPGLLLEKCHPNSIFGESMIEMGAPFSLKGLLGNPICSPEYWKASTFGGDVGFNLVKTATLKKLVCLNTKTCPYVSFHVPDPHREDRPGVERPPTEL", "assay": "Action on biosynthesis of prostaglandins in vitro", "assay_type": "biochemical", "settings": "arachidonic acid 15×10^-6 M, incubated 30 minutes at 37° C., radioimmuno test; read-out: CI50, inhibiting activity calculated on the sum of PGE2 and PGF2 alpha", "experimental": "A. Action on biosynthesis of prostaglandins in vitro.\nArachidonic acid is converted into prostaglandins (PGs) of series 2 by a cyclo-oxygenase contained in a microsomal preparation of seminal vesicles of a bull carried out according to the Tagekuchi et al method [Mechanism of prostaglandin biosynthesis. I characterization and essay of bovine prostaglandin synthetase. Biochemistry, 1971, 10, 2372]. The precursor, at […] of 15×10^-6 M, was incubated for 30 minutes at 37° C. in the presence of a fixed concentration in proteins of the preparation of seminal vesicles and of the product of Example 1. After blocking the reaction by immersion in boiling water for one minute, then centrifuging, the prostaglandins were evaluated by radioimmuno test inspired by that of Dray et al [Radioimmunoessay of prostaglandins F, E1 and E2 in human plasma. European J. Clin. Invest., 1975 5, 311]. This enabled the PGE2 and PGF2 alpha to be evaluated specifically and the inhibiting activity of the product (CI50) is calculated on the sum of these two prostaglandins. The CI50 found was 2×10^ -6 M."}},
  "data": [
    {"smiles": "COc1ccc(-c2nnc3n2-c2ccccc2C(C)=NC3C)cc1", "note": "(stereo not drawn) [Example 1, 4,6-dimethyl-1-(4-methoxyphenyl)-4H-1,2,4-triazolo[4,3-a][1,4]benzodiazepine]", "values": [
      {"measurement": "ED50", "setting": "[1]", "value": 50, "unit": "mg/kg"},
      {"measurement": "ED50", "setting": "[2]", "value": 4, "unit": "mg/kg"},
      {"measurement": "IC50", "setting": "[3]", "value": 2000, "unit": "nM"}
    ]}
  ]
}
